Source: ChEMBL document CHEMBL4840338, “Cudraflavone C from Artocarpus hirsutus as a Promising Inhibitor of Pathogenic, Multidrug-Resistant S. aureus, Persisters, and Biofilms: A New Insight into a Rational Explanation of Traditional Wisdom” (J Nat Prod, 2021)
Values after ≈ are worked out from the molar mass of the structure shown. Active and inactive are the calls of the source. No cut-off for these calls is given here.

How the values were obtained:
Staphylococcus aureus [1] = assay: microbe, parasite or virus in culture; conditions: ATCC 29213
Description: Antibacterial activity against Staphylococcus aureus ATCC 29213 assessed as bacterial growth inhibition incubated for 16 to 18 hrs by broth microdilution method

Enterococcus = assay: Antibacterial activity against Enterococcus NR 31884 assessed as bacterial growth inhibition incubated for 16 to 18 hrs by broth microdilution method; type: functional; conditions: time 16-18 hrs
Pseudomonas aeruginosa = assay: Antibacterial activity against Pseudomonas aeruginosa ATCC 27853 assessed as bacterial growth inhibition incubated for 16 to 18 hrs by broth microdilution method; type: functional; conditions: time 16-18 hrs
Acinetobacter baumannii [2] = assay: Antibacterial activity against Acinetobacter baumannii BAA 1605 assessed as bacterial growth inhibition incubated for 16 to 18 hrs by broth microdilution method; type: functional; conditions: time 16-18 hrs
Klebsiella pneumoniae = assay: Antibacterial activity against Klebsiella pneumoniae BAA-1705 assessed as bacterial growth inhibition incubated for 16 to 18 hrs by broth microdilution method; type: functional; conditions: time 16-18 hrs
Escherichia coli [3] = assay: Antibacterial activity against Escherichia coli ATCC 25922 assessed as bacterial growth inhibition incubated for 16 to 18 hrs by broth microdilution method; type: functional; conditions: time 16-18 hrs
Staphylococcus aureus [4] = assay: Antibacterial activity against Staphylococcus aureus ATCC 29213 assessed as time for increase by 1 log10CFU at 10XMIC incubated for 1 hr followed by drug wash-out and measured every single 1 hr; type: functional
Staphylococcus aureus [5] = assay: Antibacterial activity against Staphylococcus aureus ATCC 29213 assessed as time for post-antibiotic effect at 10XMIC incubated for 1 hr followed by drug wash-out and measured every single 1 hr; type: functional
Staphylococcus aureus [6] = assay: Antibacterial activity against Staphylococcus aureus ATCC 29213 assessed as time for increase by 1 log10CFU at 1XMIC incubated for 1 hr followed by drug wash-out and measured every single 1 hr; type: functional
Staphylococcus aureus [7] = assay: Antibacterial activity against Staphylococcus aureus ATCC 29213 assessed as reduction in bacterial growth at sub-MIC incubated for 25 days; type: functional, organism-based; conditions: time 25.0 day
Staphylococcus aureus [8] = assay: Antibacterial activity against Staphylococcus aureus ATCC 29213 assessed as time for post-antibiotic effect at 1XMIC incubated for 1 hr followed by drug wash-out and measured every single 1 hr; type: functional
Acinetobacter baumannii [9] = assay: Antibacterial activity against Acinetobacter baumannii BAA-1605 ssessed as bacterial growth inhibition in presence of outermembrane permeabilizer, PMBN incubated for 16 to 18 hrs by broth microdilution method; type: functional; conditions: time 16-18 hrs
Escherichia coli [10] = assay: Antibacterial activity against Escherichia coli ATCC 25922 assessed as bacterial growth inhibition in presence of outermembrane permeabilizer, PMBN incubated for 16 to 18 hrs by broth microdilution method; type: functional; conditions: time 16-18 hrs
Staphylococcus aureus [11] = assay: Antibacterial activity against Staphylococcus aureus ATCC 29213 infected in mouse J774.A1 assessed as reduction in intracellular bacterial burden at 5XMIC incubated for 24 hrs followed by replating on TSA plate for 24 hrs by intracellular killing assay; type: functional; conditions: time 48.0 hrs
Staphylococcus aureus [12] = assay: Antibiofilm activity against Staphylococcus aureus ATCC 29213 assessed as reduction in preformed bacterial biofilm at 10XMIC incubated for 24 hrs by crystal violet staining based microtiter plate reader assay; type: functional
Staphylococcus aureus [13] = assay: Bactericidal activity against Staphylococcus aureus ATCC 29213 assessed as reduction in bacterial load at 1X MIC preincubated for 6 hrs followed by subculturing on TSA plate for 18 to 20 hrs by time-kill assay; type: functional; conditions: time 24-26 hrs
Staphylococcus aureus [14] = assay: Antibiofilm activity against Staphylococcus aureus ATCC 29213 assessed as reduction in preformed bacterial biofilm at 1XMIC incubated for 24 hrs by crystal violet staining based microtiter plate reader assay; type: functional

| SMILES | MIC (Staphylococcus aureus [1]) [µg/mL] | MIC (Enterococcus) [µg/mL] | MIC (Pseudomonas aeruginosa) [µg/mL] | MIC (Acinetobacter baumannii [2]) [µg/mL] | MIC (Klebsiella pneumoniae) [µg/mL] | MIC (Escherichia coli [3]) [µg/mL] | other results |
| --- | --- | --- | --- | --- | --- | --- | --- |
| CCCCCCCCCC(=O)N[C@@H](Cc1c[nH]c2ccccc12)C(=O)N[C@H](CC(N)=O)C(=O)N[C@@H](CC(=O)O)C(=O)N[C@@H]1C(=O)NCC(=O)N[C@@H](CCCN)C(=O)N[C@@H](CC(=O)O)C(=O)N[C@H](C)C(=O)N[C@@H](CC(=O)O)C(=O)NCC(=O)N[C@H](CO)C(=O)N[C@@H]([C@H](C)CC(=O)O)C(=O)N[C@@H](CC(=O)c2ccccc2N)C(=O)O[C@@H]1C | 1 (≈ 0.617 µM) | – | – | – | – | – | – |
| COc1cc2oc3c(c(=O)c2c(O)c1/C=C/C(C)C)C(C=C(C)C)Oc1cc(O)ccc1-3 (stereo not drawn) | > 64 | > 64 | > 64 | > 64 | > 64 | > 64 | – |
| CC(C)(O/N=C(\C(=O)N[C@@H]1C(=O)N2C(C(=O)[O-])=C(C[n+]3ccccc3)CS[C@H]12)c1csc(N)n1)C(=O)O [CEFTAZIDIME] | 16 (≈ 29.3 µM) | – | – | – | – | – | – |
| CC(C)=CC1Oc2cc(O)ccc2-c2oc3cc4c(c(O)c3c(=O)c21)C=CC(C)(C)O4 (stereo not drawn) [CUDRAFLAVONE A] | > 64 | > 64 | > 64 | > 64 | > 64 | > 64 | – |
| C[C@H]1COc2c(N3CCN(C)CC3)c(F)cc3c(=O)c(C(=O)O)cn1c23.C[C@H]1COc2c(N3CCN(C)CC3)c(F)cc3c(=O)c(C(=O)O)cn1c23.O [LEVOFLOXACIN] | 0.125 | 0.25 | 0.5 | – | 64 | – | Time (Staphylococcus aureus [4]): 3 h; Time (Staphylococcus aureus [5]): 1 h; Time (Staphylococcus aureus [6]): 2.5 h; Activity (Staphylococcus aureus [7]): inactive; Time (Staphylococcus aureus [8]): 0.5 h |
| C[C@@H](O)[C@H]1C(=O)N2C(C(=O)O)=C(S[C@@H]3CN[C@H](C(=O)N(C)C)C3)[C@H](C)[C@H]12 [MEROPENEM] | 1 (≈ 2.61 µM) | – | – | – | – | – | – |
| CN(C)c1ccc(O)c2c1C[C@H]1C[C@H]3[C@H](N(C)C)C(O)=C(C(N)=O)C(=O)[C@@]3(O)C(O)=C1C2=O [MINOCYCLINE] | 0.25 (≈ 0.546 µM) | – | – | – | – | – | – |
| Oc1cc(O)cc(/C=C/c2ccc(O)cc2O)c1 [OXYRESVERATROL] | > 64 | > 64 | > 64 | > 64 | > 64 | > 64 | – |
| CO[C@H]1/C=C/O[C@@]2(C)Oc3c(C)c(O)c4c(O)c(c(/C=N/N5CCN(C)CC5)c(O)c4c3C2=O)NC(=O)/C(C)=C\C=C\[C@H](C)[C@H](O)[C@@H](C)[C@@H](O)[C@@H](C)[C@H](OC(C)=O)[C@@H]1C [RIFAMPIN] | 0.0078 (≈ 0.00948 µM) | – | – | 2 (≈ 2.43 µM) | – | 8 (≈ 9.72 µM) | MIC (Acinetobacter baumannii [9]): 0.03 µg/mL; MIC (Escherichia coli [10]): 0.06 µg/mL |
| CN[C@H](CC(C)C)C(=O)N[C@H]1C(=O)N[C@@H](CC(N)=O)C(=O)N[C@H]2C(=O)N[C@H]3C(=O)N[C@H](C(=O)N[C@H](C(=O)O)c4cc(O)cc(O)c4-c4cc3ccc4O)[C@H](O)c3ccc(c(Cl)c3)Oc3cc2cc(c3O[C@@H]2O[C@H](CO)[C@@H](O)[C@H](O)[C@H]2O[C@H]2C[C@](C)(N)[C@H](O)[C@H](C)O2)Oc2ccc(cc2Cl)[C@H]1O [VANCOMYCIN] | – | – | – | 256 (≈ 177 µM) | – | 512 (≈ 353 µM) | Activity (Staphylococcus aureus [11]): inactive; MIC (Acinetobacter baumannii [9]): 64 µg/mL; Time (Staphylococcus aureus [4]): 3.5 h; inhibition (INH) (Staphylococcus aureus [12]): 7.7%; Time (Staphylococcus aureus [5]): 1.5 h; Activity (Staphylococcus aureus [13]): 1 log10CFU/ml; Time (Staphylococcus aureus [6]): 3 h; Time (Staphylococcus aureus [8]): 1 h; Activity (Staphylococcus aureus [14]): inactive; MIC (Escherichia coli [10]): 128 µg/mL |
